#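 96-well plates; 48 h exposure; 5 concentrations. Endpoints by linear interpolation between flanking doses. Not reached: highest tested concentration assigned. TGI is the concentration that stops growth completely.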
# Legend:
# Test in all cases: NCI tumour cell line growth inhibition, 48 h
# COLO 205 colon = test system: COLO 205 colon
# MDA-N = test system: MDA-N
# NCI-H522 lung = test system: NCI-H522 lung
# OVCAR-3 ovarian = test system: OVCAR-3 ovarian
# UACC-62 melanoma = test system: UACC-62 melanoma
# SK-OV-3 ovarian = test system: SK-OV-3 ovarian
# MCF7 breast = test system: MCF7 breast
# SNB-19 CNS = test system: SNB-19 CNS
# SK-MEL-28 melanoma = test system: SK-MEL-28 melanoma
# SNB-75 CNS = test system: SNB-75 CNS
# EKVX NSCLC = test system: EKVX NSCLC
# RXF 393 renal = test system: RXF 393 renal
# A549 NSCLC = test system: A549 NSCLC
# SR leukemia = test system: SR leukemia
# SF-539 CNS = test system: SF-539 CNS
# MDA-MB-435 = test system: MDA-MB-435
# IGROV1 ovarian = test system: IGROV1 ovarian
# A498 renal = test system: A498 renal
# MOLT-4 leukemia = test system: MOLT-4 leukemia
Compound,TGI (COLO 205 colon),TGI (MDA-N),TGI (NCI-H522 lung),TGI (OVCAR-3 ovarian),TGI (UACC-62 melanoma),TGI (SK-OV-3 ovarian),TGI (MCF7 breast),TGI (SNB-19 CNS),TGI (SK-MEL-28 melanoma),TGI (SNB-75 CNS),TGI (EKVX NSCLC),TGI (RXF 393 renal),TGI (A549 NSCLC),TGI (SR leukemia),TGI (SF-539 CNS),TGI (MDA-MB-435),TGI (IGROV1 ovarian),TGI (A498 renal),TGI (MOLT-4 leukemia)
CCCCCCCCCCCCCCC(C(=O)[O-])[n+]1ccccc1 (centres undefined),> 100 µM,> 100 µM,> 100 µM,> 100 µM,> 100 µM,> 100 µM,50.9 µM,> 100 µM,> 100 µM,> 100 µM,> 100 µM,74.7 µM,> 100 µM,> 100 µM,> 100 µM,> 100 µM,> 100 µM,> 100 µM,> 100 µM
C=CC(C)CCC(C/C=C(\C)CCCC(C)C)C(=C)CCCC(C)C (centres undefined),> 100 µM,> 100 µM,> 100 µM,> 100 µM,> 100 µM,> 100 µM,> 100 µM,> 100 µM,> 100 µM,> 100 µM,> 100 µM,> 100 µM,> 100 µM,> 100 µM,> 100 µM,> 100 µM,> 100 µM,> 100 µM,> 100 µM
Nc1nc(Cl)cc(NCC2(CO)CC(CCCc3ccccc3)C2)n1 (centres undefined),> 100 µM,> 100 µM,> 100 µM,> 100 µM,> 100 µM,> 100 µM,> 100 µM,> 100 µM,> 100 µM,98.2 µM,> 100 µM,> 78.2 µM,> 100 µM,> 100 µM,> 100 µM,> 100 µM,> 100 µM,> 100 µM,> 100 µM
CC1(C)[C@H]2CC[C@](C)(C2)[C@]1(S)Cc1ccccn1,> 100 µM,> 100 µM,> 100 µM,73 µM,> 100 µM,93.6 µM,> 100 µM,> 100 µM,> 100 µM,77.1 µM,> 100 µM,80.2 µM,> 100 µM,43.2 µM,> 100 µM,91.9 µM,> 100 µM,> 100 µM,54 µM
CC(/C=C/C=C\C=C\C=C(/C)C(=O)NC(C)CO)=C\C(C)C(O)/C(C)=C/C(C)CCc1ccccc1 (centres undefined),26.8 µM,31.5 µM,17.6 µM,20 µM,25.6 µM,64 µM,19.7 µM,35.8 µM,25.9 µM,26.7 µM,> 80.6 µM,26.6 µM,> 100 µM,> 59 µM,27.1 µM,39.7 µM,20.1 µM,26.7 µM,55.6 µM
O=c1[nH]c(=S)n(-c2cccc3ccccc23)c(O)c1/C=C1\C=Nc2ccccc21,3.4 µM,4.63 µM,10.2 µM,12.6 µM,3.26 µM,14.5 µM,7.19 µM,11.3 µM,6.06 µM,6.42 µM,5.38 µM,3.43 µM,20.6 µM,4.04 µM,5.38 µM,6.69 µM,4.76 µM,4.25 µM,5.02 µM
